Experiment: Photodeprotection by irradiation with light of 470 nm (absorption spectra, fluorescence)
Format: physicochemical
Conditions: for Change of absorption peaks around 450 nm with the light irradiation / Change of absorption peaks around 490 nm with the light irradiation (release of 6-hydroxy-9-o-toluylxanthen-3-one by deprotection): 3 μM in 0.1 M sodium phosphate buffer (pH 7.4), 10% N,N-dimethylformamide, light of 470 nm, argon laser, FIG. 1
Experimental: 3,5-DNB-2-Me TG obtained in Example 1 and o-NB-2-Me TG obtained in Example 2 were each dissolved in 0.1 M sodium phosphate buffer (pH 7.4) at a concentration of 3 μM. As a cosolvent, 10% N,N-dimethylformamide was added.
Light of 470 nm was irradiated by using an argon laser. One cycle consisted of 128 pulses×10 times.
It can be understood that the peaks around 450 nm observed for 3,5-DNB-2-Me TG and o-NB-2-Me TG were lowered, and the peaks around 490 nm were highered with the light irradiation. This is because 6-hydroxy-9-o-toluylxanthen-3-one was released from the compounds by deprotection.

| SMILES | Change of absorption peaks around 450 nm with the light irradiation | Change of absorption peaks around 490 nm with the light irradiation (release of 6-hydroxy-9-o-toluylxanthen-3-one by deprotection) | Fluorescence provided by released 6-hydroxy-9-o-toluylxanthen-3-one on irradiation (irradiated with light of 470 nm, FIG. 2) |
| --- | --- | --- | --- |
| Cc1ccccc1-c1c2ccc(=O)cc-2oc2cc(OCc3ccccc3[N+](=O)[O-])ccc12 [o-NB-2-Me TG, 6-(2-nitrobenzyloxy)-9-o-toluylxanthen-3-one] | lowered | highered | – |
| Cc1ccccc1-c1c2ccc(=O)cc-2oc2cc(OCc3cc([N+](=O)[O-])cc([N+](=O)[O-])c3)ccc12 [3,5-DNB-2-Me TG, 6-(3,5-dinitrobenzyloxy)-9-o-toluylxanthen-3-one] | lowered | highered | increase of fluorescence |

Reference: patent publication US20070074967A1, “Photodegradable protective group” (The University of Tokyo, priority 2005, published 2007)
